This note sets out measurements from ChEMBL document CHEMBL1201862, “PubChem BioAssay data set” (2004).

Structures are written as SMILES.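 A five-concentration, 48-hour dose response in 96-well plates underlies each endpoint, interpolated linearly between surrounding concentrations. GI50 = concentration required for 50% inhibition of growth.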 Active and inactive are the calls of the source. No stated cut-off is given here; in the data, active = GI50 up to about 1.1 µM and inactive = higher. A value given as a limit tells only on which side of the number the result lay.

Common to all, as to test: inhibition of tumour cell growth, NCI panel, 48 h
Experiment [1] relates to SR.
Experiment [2] has as its system IGROV-1.
The subject of experiment [3] is HCT-15.
In experiment [4] the test system is UACC-62.
The subject of experiment [5] is HOP-92.
The subject of experiment [6] is NCI/ADR-RES.
Experiment [7] has as its system KM12.
The test system of experiment [8] is SK-MEL-5.
For experiment [9], the system named is NCI-H23.
The subject of experiment [10] is TK-10.
For experiment [11], the system named is SW-620.
Experiment [12] deals with SF-295.
Experiment [13] concerns U-251.
Experiment [14] relates to A549.
Experiment [15] relates to SN12C.
The subject of experiment [16] is HT-29.
The test system of experiment [17] is Hs-578T.
Experiment [18] relates to HL-60.
Experiment [19] deals with SNB-19.
For experiment [20], the system named is UO-31.

Take `Cc1c(C)n(-c2ccccc2)c2nc(S(C)(=O)=O)nc(S(C)(=O)=O)c12`: the GI50 in [1] was 1 µM (active); in [2], 4.72 µM (inactive); in experiment [3] it was 1.61 µM; in experiment [4], 3.28 µM (inactive); in experiment [5], 1.61 µM (inactive); in [6], 23.1 µM (inactive). Moreover, the GI50 in experiment [7] is 13.7 µM (inactive); in experiment [8], 12.7 µM (inactive); in experiment [9], 7.82 µM (inactive); in [10] it was 1.58 µM (inactive); in experiment [11], 0.228 µM (active); in experiment [12] it was 16.9 µM (inactive). The GI50 in experiment [13] was 5.9 µM (inactive); in [14], 16 µM (inactive); in experiment [15], 17.8 µM (inactive); in experiment [16] it was 1.92 µM (inactive); in [17], 16.1 µM (inactive); in [18], 1.58 µM (inactive). Moreover, the GI50 was 3.3 µM (inactive) in experiment [19] and 1.71 µM (inactive) in experiment [20].

In the case of `O=c1[nH]c(=O)n(C2OC(CO)C(O)C2O)c2c1CCCC2` (stereo not given), the GI50 was > 100 µM (inactive) in experiment [1]; > 100 µM (inactive) in [2]; more than 100 µM in [3]; > 100 µM (inactive) in [4]; > 100 µM (inactive) in [5]; > 100 µM (inactive) in experiment [6]. In addition, the GI50 in [7], in experiment [8], in experiment [9], in experiment [10], in [11] and in experiment [12] was > 100 µM (inactive) in each case. Moreover, the GI50 in experiment [13], in [14], in [15], in [16], in [17] and in experiment [18] was > 100 µM (inactive) each time. Besides, the GI50 in experiment [19] and in experiment [20] was > 100 µM (inactive) in each case.

As for `Cc1nc2ccc(NCCN(C)C)c3c(=O)c4cc(O)ccc4n1c23`, the GI50 is < 0.01 µM (active) in [1]; 0.839 µM (active) in experiment [2]; 0.394 µM in experiment [3]; 1.25 µM (inactive) in experiment [4]; 1.12 µM (active) in experiment [5]; 1.27 µM (inactive) in experiment [6]. The GI50 in [7] is 0.783 µM (active); in experiment [8], 1.73 µM (inactive); in experiment [9], 0.318 µM (active); in experiment [10], 2.75 µM (inactive); in experiment [11], 0.122 µM (active); in [12] it was 1.04 µM (active). In addition, the GI50 in experiment [13] was 0.352 µM (active); in [14], 0.0933 µM (active); in experiment [15] it was 0.299 µM (active); in experiment [16] it was 0.156 µM (active); in [17], 0.508 µM (active); in [18], 0.662 µM (active). The GI50 in [19] was 0.281 µM (active); in experiment [20] it was 2.49 µM (inactive).

For `C/C1=C\CC/C(C)=C/C=C(/C(C)C)CC/C(C(=O)O)=C/CC1` [CROTOCEMBRANEIC ACID], the GI50 was 22 µM (inactive) in experiment [1]; 61.1 µM (inactive) in experiment [2]; 37.8 µM in [3]; 25.8 µM (inactive) in experiment [4]; 92.3 µM (inactive) in [5]; 44.8 µM (inactive) in [6]. Moreover, the GI50 was 42.9 µM (inactive) in experiment [7]; 36 µM (inactive) in experiment [8]; 36.5 µM (inactive) in [9]; 56.8 µM (inactive) in [10]; 42.3 µM (inactive) in experiment [11]; 26.7 µM (inactive) in experiment [12]. Besides, the GI50 was 35.1 µM (inactive) in [13]; 34.3 µM (inactive) in experiment [14]; 45.3 µM (inactive) in experiment [15]; 46.7 µM (inactive) in [16]; 72.1 µM (inactive) in experiment [17]; 33 µM (inactive) in experiment [18]. For the same compound, the GI50 is 53.3 µM (inactive) in experiment [19] and 72.8 µM (inactive) in experiment [20].
